According to patent US9181234B2, “Antibacterial compounds” (priority 2010, dated 2015):
Converted amounts (≈) assume the structure as drawn.

Tests used:
[1] = physchem; details: kinetic from dmso stock
Protocol: Turbimetric Assay: Determination of Solubility
The solubility of the compounds was measured using a turbidimetric method. A series of doubling dilutions of compounds were prepared in neat dimethyl sulfoxide (DMSO). 5 μl samples were diluted twenty-fold into 95 μl volumes of 100 mM citrate buffer (pH 4), phosphate buffered saline (PBS, pH 7.4) or carbonate-bicarbonate buffer (pH 9) in microtitre assay plates and allowed to reach equilibrium at room temperature for 24 hours. The absorbance within each well of the plate was read spectrophotometrically at a wavelength of 620 nm. A precipitate forms when the maximum aqueous solubility level is reached. The value quoted is the highest concentration where the compound was in solution i.e. where no measurable precipitate was present. […] ND=not determined

[2] = system: Staphylococcus aureus (Isolate ID ATCC 29213); assay: Antibacterial activity, MIC, S. aureus; assay type: cell-based; details: broth microdilution or agar dilution; for MIC: Staphylococcus aureus, ATCC29213, Gram positive strain; for Antibacterial Activity (MIC) S. aureus (ATCC 29213): Gram positive strain
Protocol: (§1) Bacterial Assay: Determination of Antibacterial Activity
(§2) Compounds of the invention were tested for antimicrobial activity by susceptibility testing in liquid or on solid media. MICs for compounds against each strain were determined by the broth microdilution or agar dilution method according to the guidelines of the Clinical Laboratories and Standards Institute, formerly the National Committee for Clinical Laboratory Standards (Clinical Laboratories and Standards Institute. Methods for Dilution Antimicrobial Susceptibility Tests for Bacteria That Grow Aerobically; Approved Standard—Seventh Edition. Document M7-A7. CLSI, Wayne, Pa., 2006; Clinical Laboratories and Standards Institute. The gram positive bacterial strains tested include S. aureus (Staphylococcus aureus (Isolate ID ATCC 29213)), E. faecalis (Enterococcus faecalis (Isolate ID ATCC 29212)) and S. pyogenes (Streptococcus pyogenes (Isolate ID ATCC 51339)). The gram negative bacterial strains tested include H. influenzae (Haemophilus influenzae (Isolate ID ATCC 49247))

[3] = system: Streptococcus pyogenes (Isolate ID ATCC 51339); assay: Antibacterial activity, MIC, S. pyogenes; assay type: cell-based; details: broth microdilution or agar dilution; for MIC: Streptococcus pyogenes, ATCC51339, Gram positive strain; for Antibacterial Activity (MIC) S. pyogenes (ATCC 51339): Gram positive strain
Protocol: as §1, §2

[4] = system: Haemophilus influenzae (Isolate ID ATCC 49247); assay: Antibacterial activity, MIC, H. influenzae; assay type: cell-based; details: Gram negative strain, broth microdilution or agar dilution; for MIC: Haemophilus influenzae, ATCC49247
Protocol: as §1, §2

[5] = pH 7.4, aqueous buffer, Max Solubility
[6] = pH 7.4, aqueous buffer, Solubility (pH 7.4)
[7] = pH 7.4, aqueous buffer, Solubility Range
[8] = pH 7.4, aqueous buffer, Solubility Range (maximum solubility)
[9] = pH 9, aqueous buffer, Max Solubility
[10] = pH 9, aqueous buffer, Solubility Range (maximum solubility)

| Compound | solubility at 24 h [1, 5] | solubility at 24 h [1, 6] | solubility at 24 h [1, 7] | solubility at 24 h [1, 8] | MIC [2] | MIC [3] | MIC [4] | solubility at 24 h [1, 9] | solubility at 24 h [1, 10] | Antibacterial Activity (MIC) S. aureus (ATCC 29213) [2] | Antibacterial Activity (MIC) S. pyogenes (ATCC 51339) [3] | Antibacterial Activity (MIC) H. influenzae (ATCC 49247) [4] |
| --- | --- | --- | --- | --- | --- | --- | --- | --- | --- | --- | --- | --- |
| CCNC(=O)Nc1nc2cc(-c3cnc(N4CCC(C)(C(=O)O)CC4)nc3)cc(-c3ncc(C)cc3F)c2s1 [Compound 93] | ≥ 800 µg/mL | ≥ 800 µg/mL | > 800 µg/mL | > 800 µg/mL | ≤ 0.25 µg/mL | ≤ 0.25 µg/mL | 1 to 16 µg/mL (≈ 1.82 to 29.1 µM) | – | – | – | – | – |
| CCNC(=O)Nc1nc2cc(-c3cnc(N4CCC(C)(C(=O)O)CC4)nc3)cc(/C(C)=N/OCC(F)(F)F)c2s1 [Compound 94] | ≥ 800 µg/mL | ≥ 800 µg/mL | > 800 µg/mL | > 800 µg/mL | 1 to 16 µg/mL (≈ 1.73 to 27.6 µM) | 1 to 16 µg/mL (≈ 1.73 to 27.6 µM) | > 16 µg/mL | – | – | – | – | – |
| CCNC(=O)Nc1nc2cc(-c3cnc(N4CCC(C)(C(=O)O)CC4)nc3)cc(/C(C)=N/O)c2s1 [Compound 95] | ≥ 800 µg/mL | ≥ 800 µg/mL | > 800 µg/mL | > 800 µg/mL | 1 to 16 µg/mL (≈ 2.01 to 32.2 µM) | 0.25 to 1 µg/mL (≈ 0.502 to 2.01 µM) | > 16 µg/mL | – | – | – | – | – |
| CCNC(=O)Nc1nc2cc(-c3cnc(N4CCC(C)(C(=O)O)CC4)nc3)cc(/C(C)=N/OCC)c2s1 [Compound 96] | ≥ 800 µg/mL | ≥ 800 µg/mL | > 800 µg/mL | > 800 µg/mL | ≤ 0.25 µg/mL | 0.25 to 1 µg/mL (≈ 0.476 to 1.9 µM) | 1 to 16 µg/mL (≈ 1.9 to 30.4 µM) | – | – | – | – | – |
| CCNC(=O)Nc1nc2cc(-c3cnc(N4CCC(C)(C(=O)O)CC4)nc3)cc(C(=O)NCC)c2s1 [Compound 97, 1-[5-[7-(Ethylcarbamoyl)-2-(ethylcarbamoylamino)-1,3-benzothiazol-5-yl]pyrimidin-2-yl]-4-methyl-piperidine-4-carboxylic acid] | ≥ 800 µg/mL | ≥ 800 µg/mL | > 800 µg/mL | > 800 µg/mL | > 16 µg/mL | 1 to 16 µg/mL (≈ 1.95 to 31.3 µM) | > 16 µg/mL | – | – | – | – | – |
| CCNC(=O)Nc1nc2cc(-c3cnc(N4CCC(CC)(C(=O)O)CC4)nc3)cc(/C(C)=N/OC)c2s1 [Compound 116, 4-ethyl-1-[5-[2-(ethylcarbamoylamino)-7-[(E)-N-methoxy-C-methyl-carbonimidoyl]-1,3-benzothiazol-5-yl]pyrimidin-2-yl]piperidine-4-carboxylic acid] | ≥ 800 µg/mL | ≥ 800 µg/mL | > 800 µg/mL | > 800 µg/mL | ≤ 0.25 µg/mL | ≤ 0.25 µg/mL | 1 to 16 µg/mL (≈ 1.9 to 30.4 µM) | – | – | – | – | – |
| CCNC(=O)Nc1nc2cc(-c3cnc(N4CCC(C)(C(=O)O)CC4)nc3)cc(CN3CCOCC3)c2s1 [Compound 158, 1-[5-[2-(ethylcarbamoylamino)-7-(morpholinomethyl)-1,3-benzothiazol-5-yl]pyrimidin-2-yl]-4-methyl-piperidine-4-carboxylic acid] | ≥ 800 µg/mL | ≥ 800 µg/mL | > 800 µg/mL | > 800 µg/mL | 1 to 16 µg/mL (≈ 1.85 to 29.6 µM) | 1 to 16 µg/mL (≈ 1.85 to 29.6 µM) | > 16 µg/mL | – | – | – | – | – |
| CCNC(=O)Nc1nc2cc(-c3cnc(N4CCC(C)(C(=O)O)CC4)nc3)cc(C(=O)N3CCOCC3)c2s1 [Compound 159, 1-[5-[2-(ethylcarbamoylamino)-7-(morpholine-4-carbonyl)-1,3-benzothiazol-5-yl]pyrimidin-2-yl]-4-methyl-piperidine-4-carboxylic acid] | 400 µg/mL (≈ 722 µM) | 400 µg/mL (≈ 722 µM) | 400 to 800 µg/mL (≈ 722 to 1440 µM) | 400 to 800 µg/mL (≈ 722 to 1440 µM) | > 16 µg/mL | > 16 µg/mL | > 16 µg/mL | – | – | – | – | – |
| CCNC(=O)Nc1nc2cc(-c3cnc(N4CCC(C)(C(=O)O)CC4)nc3)nc(-c3ccccn3)c2s1 [Compound 162, 1-[5-[2-(ethylcarbamoylamino)-4-(2-pyridyl)thiazolo[5,4-c]pyridin-6-yl]pyrimidin-2-yl]-4-methyl-piperidine-4-carboxylic acid] | – | 200 µg/mL (≈ 386 µM) | 12.5 to 400 µg/mL (≈ 24.1 to 771 µM) | – | ≤ 0.25 µg/mL | ≤ 0.25 µg/mL | 1 to 16 µg/mL (≈ 1.93 to 30.9 µM) | 400 µg/mL (≈ 771 µM) | 400 to 800 µg/mL (≈ 771 to 1540 µM) | – | – | – |
| CCNC(=O)Nc1nc2cc(-c3cnc(N4CCCC(C)(C(=O)O)CC4)nc3)cc(-c3ccccn3)c2s1 (stereo not drawn) [Compound 166] | ≥ 800 µg/mL | ≥ 800 µg/mL | > 800 µg/mL | > 800 µg/mL | ≤ 0.25 µg/mL | ≤ 0.25 µg/mL | 1 to 16 µg/mL (≈ 1.88 to 30.1 µM) | – | – | – | – | – |
| CCNC(=O)Nc1nc2cc(-c3ccnc(N4CCC(C)(C(=O)O)CC4)c3)cc(-c3ccccn3)c2s1 [Compound 182] | – | 200 µg/mL (≈ 387 µM) | 12.5 to 400 µg/mL (≈ 24.2 to 774 µM) | – | 1 to 16 µg/mL (≈ 1.94 to 31 µM) | ≤ 0.25 µg/mL | > 16 µg/mL | ≥ 800 µg/mL | > 800 µg/mL | – | – | – |
| CCNC(=O)Nc1nc2cc(-c3cnc(N4CCC(C)(C(=O)NS(C)(=O)=O)CC4)nc3)cc(-c3ccccn3)c2s1 [Compound 186] | ≥ 800 µg/mL | ≥ 800 µg/mL | > 800 µg/mL | > 800 µg/mL | 1 to 16 µg/mL (≈ 1.68 to 26.9 µM) | ≤ 0.25 µg/mL | 1 to 16 µg/mL (≈ 1.68 to 26.9 µM) | – | – | – | – | – |
| CCNC(=O)Nc1nc2cc(-c3cnc(N4CCC(C)(C(=O)O)CC4)nc3)cc(/C(C)=N/OCCO)c2s1 [Compound 187] | – | ≥ 800 µg/mL | > 800 µg/mL | – | 1 to 16 µg/mL (≈ 1.85 to 29.5 µM) | 0.25 to 1 µg/mL (≈ 0.462 to 1.85 µM) | 1 to 16 µg/mL (≈ 1.85 to 29.5 µM) | ≥ 800 µg/mL | > 800 µg/mL | – | – | – |
| CCNC(=O)Nc1nc2cc(-c3cnc(N4CCC(CC)(C(=O)O)CC4)nc3)cc(/C=N/OC)c2s1 [Compound 189, 4-Ethyl-1-[5-[2-(ethylcarbamoylamino)-7-[(E)-methoximinomethl]-1,3-benzothiazol-5-yl]pyrimidin-2-yl]piperidine-4-carboxylic acid] | – | – | – | – | – | – | – | – | – | A (“A” activity ≦0.25 μg/mL) | A (“A” activity ≦0.25 μg/mL) | C (“C” activity >1.0 μg/mL-16 μg/mL) |
| CCNC(=O)Nc1cn2c(-n3cccn3)cc(-c3cnc(N4CCC(CC)(C(=O)O)CC4)nc3)cc2n1 [Compound 230, 4-ethyl-1-[5-[2-(ethylcarbamoylamino)-5-pyrazol-1-yl-imidazo[1,2-a]pyridin-7-yl]pyrimidin-2-yl]piperidine-4-carboxylic acid] | – | – | – | – | 1 to 16 µg/mL (≈ 1.99 to 31.8 µM) | 1 to 16 µg/mL (≈ 1.99 to 31.8 µM) | > 16 µg/mL | – | – | – | – | – |
| CCNC(=O)Nc1cn2c(-n3cccn3)cc(-c3cnc(N4CCC(C)(C(=O)O)CC4)nc3)cc2n1 [Compound 231, 1-[5-[2-(ethylcarbamoylamino)-5-pyrazol-1-yl-imidazo[1,2-a]pyridin-7-yl]pyrimidin-2-yl]-4-methyl-piperidine-4-carboxylic acid] | – | – | – | – | > 16 µg/mL | 1 to 16 µg/mL (≈ 2.04 to 32.7 µM) | – | – | – | – | – | – |
| CCNC(=O)Nc1nc2cc(-c3nc(N4CCC(C)(C(=O)O)CC4)ns3)cc(-c3ccccn3)c2s1 [Compound 233, 1-(5-{2-[(ethylcarbamoyl)amino]-7-(pyridin-2-yl)-1,3-benzothiazol-5-yl}-1,2,4-thiadiazol-3-yl)-4-methylpiperidine-4-carboxylic acid] | – | – | – | – | – | – | – | – | – | B (“B” activity >0.25 μg/mL-1.0 μg/mL) | B (“B” activity >0.25 μg/mL-1.0 μg/mL) | D (“D” activity >16 μg/mL) |
